For this test, the target named is T1, gp41 6-HB formation between N36 and C34 (Human immunodeficiency virus type 1 group M subtype B, UniProt P04578).
T1 construct: gp41 NHR (“N36”, 546-581); made in house; host or cells: chemical solid-phase FMOC synthesis
The test is described as follows: biochemical. The format is biochemical, HIV-1. The following applies: read-out: IC50, inhibition of 6-HB formation between C34 and N36; N36 1 μM preincubated with peptide 37 °C 30 min, then C34 1 μM; ELISA with mAb NC-1; triplicate. Here is the method:
Inhibition of gp41 six-helix bundle formation by a testing peptide was determined with a sandwich ELISA described previously. […] A450 was determined by an ELISA reader (Ultra 384, Tecan).
A general note: In an ELISA, binding on a coated surface is turned into a signal by an enzyme label.

T1 sequence (P04578 546-581): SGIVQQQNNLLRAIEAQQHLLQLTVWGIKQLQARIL

Consider `COc1ccc(S(=O)(=O)O)cc1N=Nc1c(S(=O)(=O)O)cc2cc(Nc3nc(Nc4ccccc4)nc(Nc4cc(C)c(N=Nc5cc(S(=O)(=O)O)cc6cc(S(=O)(=O)O)cc(O)c56)cc4OC)n3)ccc2c1O` [ADS-J1, reference compound], for which the IC50 (as a rule, the midpoint of a concentration-inhibition curve) amounted to 2.75 µM.

Source of the values: publication PMC4541410 (Scientific Reports, 2015).
